The target of the assay is Human TRPA1 (Homo sapiens, UniProt O75762). The assay is described as follows: Assay 1: In vitro cellular testing of TRPA1 modulation (CHO-TREx, Fluo-3 calcium fluorescence, AITC agonist). The class given is cell-based. Particulars: CHO-TREx cells expressing human TRPA1; Fluo-3 fluorescence (FLIPR/Tetra); agonist 15 μM allyl isothiocyanate (AITC); 30 minute antagonist incubation. The arrangement: expressed in transfected cells; host or cells: CHO-TREx cells (Invitrogen), vector pcDNA4/TO. How it is done:
Assay 1: In Vitro Cellular Testing of TRPA1 Modulation
Human TRPA1 (NCBI accession number NM_007332.1) was cloned into pcDNA4/TO. CHO-TREx cells (Invitrogen, Carlsbad, Calif.) were stably transfected with pcDNA4/TO-TRPA1 using lipofection to generate a clonal cell line that expressed human TRPA1 in a tetracycline-inducible manner. Culture medium used was Ham's F-12 supplemented with 10% fetal bovine serum, 2 mM L-glutamine, 5 μg/ml blasticidin and 200 μg/ml zeocin. Cells were seeded in black-walled clear-bottom 96-well plates at a density of 50,000 cells per well and cultured overnight at 37° C. with 5% CO2 in culture medium supplemented with 1 μg/ml tetracycline. On the day of the experiment, cells were washed 3 times with HEPES buffered saline (in mM: NaCl 137, MgCl2 0.5, KCl 2, dextrose 5, CaCl2 2 and HEPES 10; pH 7.4). Cells were then loaded with calcium-sensitive fluorescent dye by incubation in the presence of 4 μM Fluo-3 AM (TefLabs, Austin, Tex.) at room temperature in the dark for 60 minutes. After incubation with dye, cells were washed in assay buffer and, if appropriate, antagonists were added at this time. Following a further 30 minute incubation, cells were assayed using a Fluorometric Imaging Plate Reader (FLIPR™) or a Tetra (both manufactured by Molecular Devices, CA) to simultaneously monitor Fluo-3 fluorescence in all wells (λexcitation=488 nm, λemission=540 nm). Changes in fluorescence were monitored for 3 minutes after the addition of 15 μM allyl isothiocyanate (AITC) as an agonist. Concentration-dependence of receptor blocking was determined by exposing each well of cells in duplicate rows of a 96-well plate to a serial dilution of test compound. The concentration series usually started at 10 μM with a three-fold serial decrement in concentration. The magnitude of the response to agonist challenge was determined by measuring the fluorescence before and 3 minutes after the addition of the agonist. The degree of blocking was determined by comparing the response to that of negative (no added antagonist) and positive (10 μM ruthenium red) control wells. Data were analyzed using a non-linear regression program (Origin; OriginLab, MA) to fit the concentration-response data to a Hill function. Antagonist potencies were determined as the concentration required to produce 50% reduction in the response as compared to the negative and positive controls.

The term IC50 denotes the concentration at which inhibition is half-maximal.

Sequence of Human TRPA1 (O75762 whole entry): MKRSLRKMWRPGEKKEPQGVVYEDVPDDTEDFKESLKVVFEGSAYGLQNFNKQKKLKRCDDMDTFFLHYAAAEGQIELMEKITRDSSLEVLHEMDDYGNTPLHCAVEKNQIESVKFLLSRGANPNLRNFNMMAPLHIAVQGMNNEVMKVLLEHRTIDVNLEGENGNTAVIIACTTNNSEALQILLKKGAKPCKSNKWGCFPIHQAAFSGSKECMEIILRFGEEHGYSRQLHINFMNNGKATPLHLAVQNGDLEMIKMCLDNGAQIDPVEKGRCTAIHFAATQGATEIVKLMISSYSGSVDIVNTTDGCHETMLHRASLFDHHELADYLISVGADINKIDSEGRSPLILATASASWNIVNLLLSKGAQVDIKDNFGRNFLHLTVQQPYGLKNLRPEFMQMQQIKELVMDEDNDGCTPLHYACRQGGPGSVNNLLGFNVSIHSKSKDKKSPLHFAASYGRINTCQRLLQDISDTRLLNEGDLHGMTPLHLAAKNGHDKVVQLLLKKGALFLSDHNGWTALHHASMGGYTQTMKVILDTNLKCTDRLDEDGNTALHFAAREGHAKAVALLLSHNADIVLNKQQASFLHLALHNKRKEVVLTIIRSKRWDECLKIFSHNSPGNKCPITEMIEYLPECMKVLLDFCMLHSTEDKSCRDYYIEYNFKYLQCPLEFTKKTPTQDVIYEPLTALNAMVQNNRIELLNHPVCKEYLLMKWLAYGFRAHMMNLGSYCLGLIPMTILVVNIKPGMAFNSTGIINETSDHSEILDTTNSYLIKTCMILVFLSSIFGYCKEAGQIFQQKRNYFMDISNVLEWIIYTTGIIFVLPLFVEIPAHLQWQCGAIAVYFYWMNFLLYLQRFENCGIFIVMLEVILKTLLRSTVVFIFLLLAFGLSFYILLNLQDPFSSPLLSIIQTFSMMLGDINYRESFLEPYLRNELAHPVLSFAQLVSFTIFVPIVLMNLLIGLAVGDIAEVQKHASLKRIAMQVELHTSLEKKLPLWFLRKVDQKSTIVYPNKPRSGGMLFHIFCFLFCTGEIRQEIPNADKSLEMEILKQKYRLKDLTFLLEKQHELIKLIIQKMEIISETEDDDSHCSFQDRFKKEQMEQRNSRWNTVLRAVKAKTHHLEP

Regarding `CC(NC(=O)[C@@H]1CCCN1S(=O)(=O)c1ccc(F)cc1)c1cc(-c2ccc(C(F)(F)F)cc2)ncn1` (single isomer, unassigned) [Example 181, (1S*,2S)-1-(4-Fluoro-benzenesulfonyl)-pyrrolidine-2-carboxylic acid {1-[6-(4-trifluoromethyl-phenyl)-pyrimidin-4-yl]-ethyl}-amide], the concentration for half-maximal inhibition (IC50) amounted to 602 nM.
In the case of `CC(NC(=O)[C@@H]1CCCN1S(=O)(=O)c1ccc(F)cc1)c1cc(-c2ccc(C(F)(F)F)cc2)ncn1` (single isomer, unassigned) [Example 182, (1R*,2S)-1-(4-Fluoro-benzenesulfonyl)-pyrrolidine-2-carboxylic acid {1-[6-(4-trifluoromethyl-phenyl)-pyrimidin-4-yl]-ethyl}-amide] it was 923 nM; in that of `CC(C)CN1CCN(c2nc(CNC(=O)[C@@H]3CCCN3S(=O)(=O)c3ccc(F)cc3)cc(-c3ccc(C(F)(F)F)cc3)n2)CC1` [Example 1, 1-(4-Fluoro-benzenesulfonyl)-pyrrolidine-2S-carboxylic acid [2-(4-isobutyl-piperazin-1-yl)-6-(4-trifluoromethyl-phenyl)-pyrimidin-4-ylmethyl]-amide], 36 nM; in that of `COc1nc(CNC(=O)[C@@H]2CCCN2S(=O)(=O)c2ccc(F)cc2)cc(-c2ccc(C(F)(F)F)cc2)n1` [Example 2, 1-(4-Fluoro-benzenesulfonyl)-pyrrolidine-2S-carboxylic acid [2-methoxy-6-(4-trifluoromethyl-phenyl)-pyrimidin-4-ylmethyl]-amide], 40 nM.
Next, `O=C(NCc1cc(-c2ccc(C(F)(F)F)cc2)nc(-c2cccnc2)n1)[C@@H]1CCCN1S(=O)(=O)c1ccc(F)cc1` [Example 3, 1-(4-Fluoro-benzenesulfonyl)-pyrrolidine-2S-carboxylic acid [2-pyridin-3-yl-6-(4-trifluoromethyl-phenyl)-pyrimidin-4-ylmethyl]-amide]: 108 nM; `O=C(NCc1cc(-c2ccc(C(F)(F)F)cc2)nc(-c2ccc(C(F)(F)F)cc2)n1)[C@@H]1CCCN1S(=O)(=O)c1ccc(F)cc1` [Example 4, 1-(4-Fluoro-benzenesulfonyl)-pyrrolidine-2S-carboxylic acid [2,6-bis-(4-trifluoromethyl-phenyl)-pyrimidin-4-ylmethyl]-amide]: 3 nM.
Turning to `O=C(NCc1cc(-c2ccc(C(F)(F)F)cc2)nc(-c2cccc(C(F)(F)F)c2)n1)[C@@H]1CCCN1S(=O)(=O)c1ccc(F)cc1` [Example 5, 1-(4-Fluoro-benzenesulfonyl)-pyrrolidine-2S-carboxylic acid [2-(3-trifluoromethyl-phenyl)-6-(4-trifluoromethyl-phenyl)-pyrimidin-4-ylmethyl]-amide], the 50% inhibitory concentration (IC50) stood at 9 nM.
In the case of `O=C(NCc1cc(-c2ccc(C(F)(F)F)cc2)nc(-c2ccccc2C(F)(F)F)n1)[C@@H]1CCCN1S(=O)(=O)c1ccc(F)cc1` [Example 6, 1-(4-Fluoro-benzenesulfonyl)-pyrrolidine-2S-carboxylic acid [2-(2-trifluoromethyl-phenyl)-6-(4-trifluoromethyl-phenyl)-pyrimidin-4-ylmethyl]-amide] it was 11 nM; in that of `O=C(NCc1cc(-c2ccc(C(F)(F)F)cc2)nc(-c2ccncc2)n1)[C@@H]1CCCN1S(=O)(=O)c1ccc(F)cc1` [Example 7, 1-(4-Fluoro-benzenesulfonyl)-pyrrolidine-2S-carboxylic acid [2-pyridin-4-yl-6-(4-trifluoromethyl-phenyl)-pyrimidin-4-ylmethyl]-amide], 229 nM.
In the case of `Nc1nc(CNC(=O)[C@@H]2CCCN2S(=O)(=O)c2ccc(F)cc2)cc(-c2ccc(C(F)(F)F)cc2)n1` [Example 8, 1-(4-Fluoro-benzenesulfonyl)-pyrrolidine-2S-carboxylic acid [2-amino-6-(4-trifluoromethyl-phenyl)-pyrimidin-4-ylmethyl]-amide] it was 475 nM; in that of `CC(C)N1CCN(c2nc(CNC(=O)[C@@H]3CCCN3S(=O)(=O)c3ccc(F)cc3)cc(-c3ccc(C(F)(F)F)cc3)n2)CC1` [Example 9, 1-(4-Fluoro-benzenesulfonyl)-pyrrolidine-2S-carboxylic acid [2-(4-isopropyl-piperazin-1-yl)-6-(4-trifluoromethyl-phenyl)-pyrimidin-4-ylmethyl]-amide], 542 nM; in that of `CN(C)c1nc(CNC(=O)[C@@H]2CCCN2S(=O)(=O)c2ccc(F)cc2)cc(-c2ccc(C(F)(F)F)cc2)n1` [Example 10, 1-(4-Fluoro-benzenesulfonyl)-pyrrolidine-2S-carboxylic acid [2-dimethylamino-6-(4-trifluoromethyl-phenyl)-pyrimidin-4-ylmethyl]-amide], 30 nM.
Next, `O=C(NCc1cc(-c2ccc(C(F)(F)F)cc2)ncn1)[C@@H]1CCCN1S(=O)(=O)c1ccc(F)cc1` [Example 11, 1-(4-Fluoro-benzenesulfonyl)-pyrrolidine-2S-carboxylic acid [6-(4-trifluoromethyl-phenyl)-pyrimidin-4-ylmethyl]-amide]: 65 nM; `CN1CCC(CNc2nc(CNC(=O)[C@@H]3CCCN3S(=O)(=O)c3ccc(F)cc3)cc(-c3ccc(C(F)(F)F)cc3)n2)C1` (stereo partly drawn) [Example 12, 1-(4-Fluoro-benzenesulfonyl)-pyrrolidine-2S-carboxylic acid [2-[(1-methyl-pyrrolidin-3-ylmethyl)-amino]-6-(4-trifluoromethyl-phenyl)-pyrimidin-4-ylmethyl]-amide]: 1090 nM.
For `CCC(CC)N1CCN(c2nc(CNC(=O)[C@@H]3CCCN3S(=O)(=O)c3ccc(F)cc3)cc(-c3ccc(C(F)(F)F)cc3)n2)CC1` [Example 13, 1-(4-Fluoro-benzenesulfonyl)-pyrrolidine-2S-carboxylic acid [2-[4-(1-ethyl-propyl)-piperazin-1-yl]-6-(4-trifluoromethyl-phenyl)-pyrimidin-4-ylmethyl]-amide], the IC50 came to 90 nM.
In the case of `CNc1nc(CNC(=O)[C@@H]2CCCN2S(=O)(=O)c2ccc(F)cc2)cc(-c2ccc(C(F)(F)F)cc2)n1` [Example 14, 1-(4-Fluoro-benzenesulfonyl)-pyrrolidine-2S-carboxylic acid [2-methylamino-6-(4-trifluoromethyl-phenyl)-pyrimidin-4-ylmethyl]-amide] it was 21 nM; in that of `CCN1CCN(c2nc(CNC(=O)[C@@H]3CCCN3S(=O)(=O)c3ccc(F)cc3)cc(-c3ccc(C(F)(F)F)cc3)n2)CC1` [Example 15, 1-(4-Fluoro-benzenesulfonyl)-pyrrolidine-2S-carboxylic acid [2-(4-ethyl-piperain-1-yl)-6-(4-trifluoromethyl-phenyl)-pyrimidin-4-ylmethyl]-amide], 418 nM.
In the case of `CC(Nc1nc(CNC(=O)[C@@H]2CCCN2S(=O)(=O)c2ccc(F)cc2)cc(-c2ccc(C(F)(F)F)cc2)n1)c1ccccn1` (stereo partly drawn) [Example 16, 1-(4-Fluoro-benzenesulfonyl)-pyrrolidine-2S-carboxylic acid [2-(1-pyridin-2-yl-ethylamino)-6-(4-trifluoromethyl-phenyl)-pyrimidin-4-ylmethyl]-amide], the 50% inhibitory concentration (IC50) came out at 34 nM.
For the molecule `CN(C)CCN1CCN(c2nc(CNC(=O)[C@@H]3CCCN3S(=O)(=O)c3ccc(F)cc3)cc(-c3ccc(C(F)(F)F)cc3)n2)CC1` [Example 17, 1-(4-Fluoro-benzenesulfonyl)-pyrrolidine-2S-carboxylic acid [2-[4-(2-dimethylamino-ethyl)-piperazin-1-yl]-6-(4-trifluoromethyl-phenyl)-pyrimidin-4-ylmethyl]-amide], the IC50 was found to be 2080 nM.
Next, `CN(C)CCN(C)c1nc(CNC(=O)[C@@H]2CCCN2S(=O)(=O)c2ccc(F)cc2)cc(-c2ccc(C(F)(F)F)cc2)n1` [Example 18, 1-(4-Fluoro-benzenesulfonyl)-pyrrolidine-2S-carboxylic acid [2-[(2-dimethylamino-ethyl)-methyl-amino]-6-(4-trifluoromethyl-phenyl)-pyrimidin-4-ylmethyl]-amide]: 1850 nM.
In the case of `O=C(NCc1cc(-c2ccc(C(F)(F)F)cc2)nc(N2CCN(Cc3cccnc3)CC2)n1)[C@@H]1CCCN1S(=O)(=O)c1ccc(F)cc1` [Example 19, 1-(4-Fluoro-benzenesulfonyl)-pyrrolidine-2S-carboxylic acid [2-(4-pyridin-3-ylmethyl-piperazin-1-yl)-6-(4-trifluoromethyl-phenyl)-pyrimidin-4-ylmethyl]-amide] it was 16 nM.

Values taken from patent US8614201B2 (Janssen Pharmaceutica NV, priority 2009, dated 2013).
